From ChEMBL document CHEMBL1153774, “Chemical constituents from the aerial parts of Artemisia minor” (J Nat Prod, 2009)

Legend:
[1] = target: Xanthine dehydrogenase/oxidase (Homo sapiens, UniProt P47989); assay: Inhibition of XOD
[2] = target: T1, Tyrosine-protein phosphatase non-receptor type 1 (Homo sapiens, UniProt P18031); assay: Inhibition of human recombinant PTP1B after 10 mins
T1 sequence (P18031 whole entry): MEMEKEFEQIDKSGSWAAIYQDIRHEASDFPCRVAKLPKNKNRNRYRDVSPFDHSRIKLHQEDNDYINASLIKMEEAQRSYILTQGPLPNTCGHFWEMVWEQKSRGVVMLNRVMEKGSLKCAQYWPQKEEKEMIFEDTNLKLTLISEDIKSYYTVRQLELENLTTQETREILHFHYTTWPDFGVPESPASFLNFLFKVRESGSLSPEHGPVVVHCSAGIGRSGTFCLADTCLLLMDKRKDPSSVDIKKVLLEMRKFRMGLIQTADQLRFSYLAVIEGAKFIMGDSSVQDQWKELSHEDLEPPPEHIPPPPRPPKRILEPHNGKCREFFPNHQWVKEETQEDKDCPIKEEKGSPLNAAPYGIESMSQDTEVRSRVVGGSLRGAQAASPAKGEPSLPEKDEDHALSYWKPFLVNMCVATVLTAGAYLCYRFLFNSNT

[3] = tested on: HepG2; assay: Cytotoxicity against human HepG2 cells by SRB assay; type: functional

Xanthine dehydrogenase/oxidase, sequence (P47989 whole entry): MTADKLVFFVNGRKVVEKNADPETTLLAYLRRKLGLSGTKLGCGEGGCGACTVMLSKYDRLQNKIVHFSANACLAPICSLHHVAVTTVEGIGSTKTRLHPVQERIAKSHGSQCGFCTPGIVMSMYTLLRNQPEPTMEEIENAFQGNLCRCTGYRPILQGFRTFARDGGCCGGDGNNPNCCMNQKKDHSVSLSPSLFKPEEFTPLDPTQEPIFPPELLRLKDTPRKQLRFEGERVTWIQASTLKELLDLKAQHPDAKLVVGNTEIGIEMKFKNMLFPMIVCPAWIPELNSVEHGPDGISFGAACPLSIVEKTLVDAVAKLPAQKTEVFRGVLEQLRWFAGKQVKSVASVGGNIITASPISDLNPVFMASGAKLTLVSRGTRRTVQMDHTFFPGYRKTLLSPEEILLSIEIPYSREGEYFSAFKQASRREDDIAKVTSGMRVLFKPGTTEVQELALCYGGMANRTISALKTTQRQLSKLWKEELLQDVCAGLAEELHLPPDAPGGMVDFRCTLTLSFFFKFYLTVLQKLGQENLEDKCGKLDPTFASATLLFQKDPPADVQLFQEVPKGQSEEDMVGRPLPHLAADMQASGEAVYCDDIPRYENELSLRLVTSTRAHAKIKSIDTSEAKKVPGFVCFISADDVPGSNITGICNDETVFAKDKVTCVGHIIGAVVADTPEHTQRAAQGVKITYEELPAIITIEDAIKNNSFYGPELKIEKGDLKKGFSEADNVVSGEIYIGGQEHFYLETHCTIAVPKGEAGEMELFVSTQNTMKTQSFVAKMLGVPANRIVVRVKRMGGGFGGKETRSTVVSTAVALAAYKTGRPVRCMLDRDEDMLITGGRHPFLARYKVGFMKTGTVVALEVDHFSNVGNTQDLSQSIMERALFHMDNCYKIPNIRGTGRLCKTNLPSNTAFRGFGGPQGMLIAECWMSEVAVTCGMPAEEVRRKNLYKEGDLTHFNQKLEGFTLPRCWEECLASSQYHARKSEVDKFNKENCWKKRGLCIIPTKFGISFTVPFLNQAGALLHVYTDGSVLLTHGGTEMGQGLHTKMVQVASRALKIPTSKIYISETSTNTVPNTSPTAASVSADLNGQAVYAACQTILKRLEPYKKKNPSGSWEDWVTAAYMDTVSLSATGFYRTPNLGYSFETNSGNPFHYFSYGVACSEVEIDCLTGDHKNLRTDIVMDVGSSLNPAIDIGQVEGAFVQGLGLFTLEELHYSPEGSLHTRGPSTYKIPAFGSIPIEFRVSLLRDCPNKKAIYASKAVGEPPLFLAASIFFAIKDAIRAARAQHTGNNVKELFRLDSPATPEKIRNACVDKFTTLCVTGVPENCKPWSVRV

SMILES	IC50 [1]	GI50 [3]	also measured
COc1cc2cc(-c3cc4cc(O)c(O)cc4oc3=O)c(=O)oc2c(OC)c1O [ARTEMINORIN C]	7.71 µM	–	–
O=C(O)/C=C/c1ccc(O)c(O)c1 [CAFFEIC ACID]	–	–	IC50 [2]: 3.06 µM
CCOC(=O)/C=C/c1ccc(O)c(O)c1 [ETHYL CAFFEATE]	–	17.2 µM	–
O=c1cc(-c2ccc(O)c(O)c2)oc2cc(O)cc(O)c12 [LUTEOLIN]	11.5 µM	–	–
CC(=O)O[C@H]1C(=O)[C@@]2(C)[C@H]([C@H](OC(=O)c3ccccc3)[C@]3(O)C[C@H](OC(=O)[C@H](O)[C@@H](NC(=O)c4ccccc4)c4ccccc4)C(C)=C1C3(C)C)[C@]1(OC(C)=O)CO[C@@H]1C[C@@H]2O [PACLITAXEL]	–	0.059 µM	–
